Results reported in the supplement of paper PMC10307832.

Columns and labels:
Test in all cases: relative viability (nuclei count vs DMSO), 5 days (fraction); higher = more cells survive
Bemcentinib + Bortezomib = compound: Nc1nc(Nc2ccc3c(c2)CC[C@@H](N2CCCC2)CC3)nn1-c1cc2c(nn1)-c1ccccc1CCC2 [Bemcentinib] + CC(C)C[C@H](NC(=O)[C@H](Cc1ccccc1)NC(=O)c1cnccn1)B(O)O [Bortezomib] (partner 0.002 µM)
How it was run: (§1)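 Nuclei were stained with Hoechst during a one-step fixation (final 0.05% Triton X-100, 1% formaldehyde, 1 ug/ml Hoechst) carried out 5 days after dosing, then counted on 4× images. The cells, lung cancer lines in 1536-well plates, had been dosed by pin tool the day after seeding with one drug alone or a fixed anchor-drug dose plus five library-drug doses (not always all listed) in √10 steps. Relative viability is the nuclei count in treated wells divided by that in vehicle wells, and each value is the median of duplicate plates.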

[1] = compound: CC1=CC=C(C=C1)C(=O)CN2C3=C(CCCC3)SC2=N [Pifithrin_alpha] + Cc1cc(Nc2cc(N3CCN(C)CC3)nc(Sc3ccc(NC(=O)C4CC4)cc3)n2)n[nH]1 [Tozasertib] (partner 0.1 µM)
How it was run: as §1

[2] = compound: CC1=CC=C(C=C1)C(=O)CN2C3=C(CCCC3)SC2=N [Pifithrin_alpha] + C[C@@H](Oc1cc(-c2cnn(C3CCNCC3)c2)cnc1N)c1c(Cl)ccc(F)c1Cl [Crizotinib] (partner 1 µM)
How it was run: as §1

Axitinib + Dasatinib = compound: CNC(=O)c1ccccc1Sc1ccc2c(/C=C/c3ccccn3)n[nH]c2c1 [Axitinib] + Cc1nc(Nc2ncc(C(=O)Nc3c(C)cccc3Cl)s2)cc(N2CCN(CCO)CC2)n1 [Dasatinib] (partner 0.075 µM)
How it was run: as §1

NCI-H650
relative viability (Bemcentinib + Bortezomib; first compound 0.04 µM): 0.68
relative viability (Bemcentinib + Bortezomib; first compound 0.1265 µM): 0.855
relative viability (Bemcentinib + Bortezomib; first compound 0.4 µM): 0.92
relative viability (Bemcentinib + Bortezomib; first compound 1.265 µM): 0.628
relative viability (Bemcentinib + Bortezomib; first compound 4 µM): 0.701
relative viability ([1]; first compound 3.162 µM): 0.79
relative viability ([1]; first compound 10 µM): 0.678
relative viability ([1]; first compound 31.62 µM): 0.548
relative viability ([1]; first compound 100 µM): 0.624
relative viability ([2]; first compound 3.162 µM): 0.671
relative viability ([2]; first compound 10 µM): 0.659
relative viability ([2]; first compound 31.62 µM): 0.434
relative viability ([2]; first compound 100 µM): 0.743
relative viability (Axitinib + Dasatinib; first compound 0.005 µM): 0.496
relative viability (Axitinib + Dasatinib; first compound 0.01581 µM): 0.455
relative viability (Axitinib + Dasatinib; first compound 0.05 µM): 0.47
relative viability (Axitinib + Dasatinib; first compound 0.1581 µM): 0.436
relative viability (Axitinib + Dasatinib; first compound 0.5 µM): 0.396
